Laboratory results: ChEMBL document CHEMBL5244273, “Tuberculosis: An Overview of the Immunogenic Response, Disease Progression, and Medicinal Chemistry Efforts in the Last Decade toward the Development of Potential Drugs for Extensively Drug-Resistant Tuberculosis Strains” (J Med Chem, 2021)
In brackets after ≈: the same amount, converted by molar mass.

Key:
[1] = system: Mycobacterium tuberculosis; assay: Antimycobacterial activity against Mycobacterium tuberculosis H37Rv incubated for 2 weeks; type: functional; conditions: 336 h
[2] = system: Mycobacterium tuberculosis; assay: Antimycobacterial activity against Mycobacterium tuberculosis H37Rv incubated for 3 weeks; type: functional; conditions: 504 h
[3] = system: Mycobacterium tuberculosis; assay: Antimycobacterial activity against Mycobacterium tuberculosis H37Rv incubated for 5 weeks; type: functional; conditions: 840 h
[4] = system: Mycobacterium tuberculosis; assay: Antimycobacterial activity against Mycobacterium tuberculosis H37Rv incubated for 4 weeks; type: functional; conditions: 672 h
[5] = system: Mycobacterium tuberculosis; assay: Antimycobacterial activity against Mycobacterium tuberculosis H37Rv ATCC 27294 by broth dilution method; type: functional
J774 = assay: Cytotoxicity against mouse J774 cells incubated for 24 hrs by MTT assay; type: toxicity, cell-based; conditions: j774, 24 h
[6] = system: Mycobacterium tuberculosis; assay: Antimycobacterial activity against non replicating Mycobacterium tuberculosis by broth dilution method; type: functional
[7] = Selectivity index, ratio of GI50 for cytotoxicity against HUVEC cells to MIC for antitubercular activity against dormant stage of Mycobacterium tuberculosis H37Ra; type: toxicity, cell-based; conditions: human, read-out: Selectivity Index
[8] = system: Mycobacterium tuberculosis; assay: Antitubercular activity against dormant stage of Mycobacterium tuberculosis H37Ra; type: functional
[9] = Selectivity index, ratio of GI50 for cytotoxicity against HUVEC cells to MIC for antitubercular activity against active stage of Mycobacterium tuberculosis H37Ra; type: toxicity, cell-based; conditions: human, read-out: Selectivity Index
HeLa = assay: Cytotoxicity against human HeLa cells assessed as cell growth inhibition; type: functional
[10] = Cytotoxicity against HUVEC cells assessed as cell growth inhibition; type: toxicity, cell-based; conditions: human
[11] = Selectivity index, ratio of GI50 for cytotoxicity against human MCF7 cells to MIC for antitubercular activity against active stage of Mycobacterium tuberculosis H37Ra; type: toxicity, cell-based; conditions: read-out: Selectivity Index
[12] = Selectivity index, ratio of GI50 for cytotoxicity against human HeLa cells to MIC for antitubercular activity against dormant stage of Mycobacterium tuberculosis H37Ra; type: toxicity, cell-based; conditions: read-out: Selectivity Index
[13] = system: Mycobacterium tuberculosis; assay: Antitubercular activity against active stage of Mycobacterium tuberculosis H37Ra; type: functional
[14] = Selectivity index, ratio of GI50 for cytotoxicity against human MCF7 cells to MIC for antitubercular activity against dormant stage of Mycobacterium tuberculosis H37Ra; type: toxicity, cell-based; conditions: read-out: Selectivity Index
[15] = Selectivity index, ratio of GI50 for cytotoxicity against human HeLa cells to MIC for antitubercular activity against active stage of Mycobacterium tuberculosis H37Ra; type: toxicity, cell-based; conditions: read-out: Selectivity Index
MCF7 = assay: Cytotoxicity against human MCF7 cells assessed as cell growth inhibition; type: functional
[16] = system: Mycobacterium tuberculosis; assay: Antimycobacterial activity against Mycobacterium tuberculosis H37Rv; type: functional

COc1ccc(-c2cc3c(cc2F)c(=O)c(C(=O)O)cn3C(C)(C)C)cc1
MIC [1]: 0.5 µg/mL (≈ 1.35 µM)
MIC [2]: 1 µg/mL (≈ 2.71 µM)
MIC [3]: 2 µg/mL (≈ 5.41 µM)
MIC [4]: 1 µg/mL (≈ 2.71 µM)

CC(C)(C)n1cc(C(=O)O)c(=O)c2cc(F)c(-c3cccnc3)cc21
MIC [1]: 0.25 µg/mL (≈ 0.735 µM)
MIC [2]: 0.25 µg/mL (≈ 0.735 µM)
MIC [3]: 0.25 µg/mL (≈ 0.735 µM)
MIC [4]: 0.25 µg/mL (≈ 0.735 µM)

CC(C)(C)n1cc(C(=O)O)c(=O)c2cc(F)c(C#Cc3ccccc3)cc21
MIC [1]: > 16 µg/mL
MIC [2]: > 16 µg/mL
MIC [3]: > 16 µg/mL
MIC [4]: > 16 µg/mL

CC(C)(C)n1cc(C(=O)O)c(=O)c2cc(F)c(-c3ccc(O)cc3)cc21
MIC [1]: 0.25 µg/mL (≈ 0.704 µM)
MIC [2]: 0.25 µg/mL (≈ 0.704 µM)
MIC [3]: 0.25 µg/mL (≈ 0.704 µM)
MIC [4]: 0.25 µg/mL (≈ 0.704 µM)

Cc1cc(-c2cn(C[C@@]3(C)Cn4cc([N+](=O)[O-])nc4O3)nn2)ccc1F
MIC [5]: 2 µg/mL (≈ 5.58 µM)
Activity (J774): > 40 µg/mL
MIC [6]: 4 µg/mL (≈ 11.2 µM)

Cc1ccc(OCc2cn(C[C@@]3(C)Cn4cc([N+](=O)[O-])nc4O3)nn2)cc1
MIC [5]: 1 µg/mL (≈ 2.7 µM)
Activity (J774): > 40 µg/mL
MIC [6]: 2 µg/mL (≈ 5.4 µM)

CCc1ccc(OCc2cn(C[C@@]3(C)Cn4cc([N+](=O)[O-])nc4O3)nn2)cc1
MIC [5]: 2 µg/mL (≈ 5.2 µM)
Activity (J774): > 40 µg/mL
MIC [6]: 2 µg/mL (≈ 5.2 µM)

O=C(OCc1ccccc1)c1ccsc1NC(=O)[C@@H]1CCCN1
selectivity ratio [7]: > 66.5
MIC [8]: 3.76 µg/mL (≈ 11.4 µM)
selectivity ratio [9]: > 11.8
GI50 (HeLa): > 250 µg/mL
GI50 [10]: > 250 µg/mL
selectivity ratio [11]: > 11.8
selectivity ratio [12]: > 66.5
MIC [13]: 21.1 µg/mL (≈ 63.9 µM)
selectivity ratio [14]: > 66.5
selectivity ratio [15]: > 11.8
GI50 (MCF7): > 250 µg/mL

C[C@]1(Cn2cc(CN3CCOCC3)nn2)Cn2cc([N+](=O)[O-])nc2O1
MIC [5]: 2 µg/mL (≈ 5.72 µM)
Activity (J774): > 40 µg/mL
MIC [6]: 1 µg/mL (≈ 2.86 µM)

Cc1cccc(OCc2cn(C[C@@]3(C)Cn4cc([N+](=O)[O-])nc4O3)nn2)c1
MIC [5]: 0.5 µg/mL (≈ 1.35 µM)
Activity (J774): > 40 µg/mL
MIC [6]: 0.5 µg/mL (≈ 1.35 µM)

COc1ccc(-c2cc3c(cc2F)c(=O)c(C(=O)O)cn3C(C)(C)C)cn1
MIC [1]: 0.25 µg/mL (≈ 0.675 µM)
MIC [2]: 0.25 µg/mL (≈ 0.675 µM)
MIC [3]: 0.5 µg/mL (≈ 1.35 µM)
MIC [4]: 0.5 µg/mL (≈ 1.35 µM)

Cc1ccc(OCCc2cn(C[C@@]3(C)Cn4cc([N+](=O)[O-])nc4O3)nn2)cc1
MIC [5]: 0.25 µg/mL (≈ 0.65 µM)
Activity (J774): > 40 µg/mL
MIC [16]: 0.25 µg/mL (≈ 0.65 µM)

Cc1ccc(SCc2cn(C[C@@]3(C)Cn4cc([N+](=O)[O-])nc4O3)nn2)cc1
MIC [5]: 2 µg/mL (≈ 5.18 µM)
Activity (J774): > 40 µg/mL
MIC [6]: 1 µg/mL (≈ 2.59 µM)

C[C@]1(Cn2cc(-c3ccc(C(F)(F)F)cc3)nn2)Cn2cc([N+](=O)[O-])nc2O1
MIC [5]: 2 µg/mL (≈ 5.07 µM)
Activity (J774): > 40 µg/mL
MIC [6]: 8 µg/mL (≈ 20.3 µM)

CC(C)(C)CCn1cc(C(=O)O)c(=O)c2cc(F)c(-c3ccccc3)cc21
MIC [1]: 4 µg/mL (≈ 10.9 µM)
MIC [2]: 8 µg/mL (≈ 21.8 µM)
MIC [3]: 8 µg/mL (≈ 21.8 µM)
MIC [4]: 8 µg/mL (≈ 21.8 µM)

C[C@]1(Cn2cc(-c3ccc(F)cc3)nn2)Cn2cc([N+](=O)[O-])nc2O1
MIC [5]: 1 µg/mL (≈ 2.9 µM)
Activity (J774): > 40 µg/mL
MIC [6]: 2 µg/mL (≈ 5.81 µM)

CCOC(=O)c1ccsc1NC(=O)[C@@H]1CCCN1
selectivity ratio [7]: > 32.8
MIC [8]: 7.62 µg/mL (≈ 28.4 µM)
selectivity ratio [9]: > 27.5
GI50 (HeLa): 35.3 µg/mL (≈ 132 µM)
GI50 [10]: > 250 µg/mL
selectivity ratio [11]: > 27.5
selectivity ratio [12]: 4.63
MIC [13]: 9.08 µg/mL (≈ 33.8 µM)
selectivity ratio [14]: > 32.8
selectivity ratio [15]: 3.88
GI50 (MCF7): > 250 µg/mL

C[C@]1(Cn2cc(COc3cccc(F)c3)nn2)Cn2cc([N+](=O)[O-])nc2O1
MIC [5]: 1 µg/mL (≈ 2.67 µM)
Activity (J774): > 40 µg/mL
MIC [6]: 2 µg/mL (≈ 5.34 µM)

C[C@]1(Cn2cc(-c3ccc(F)cc3F)nn2)Cn2cc([N+](=O)[O-])nc2O1
MIC [5]: 1 µg/mL (≈ 2.76 µM)
Activity (J774): > 40 µg/mL
MIC [6]: 8 µg/mL (≈ 22.1 µM)

O=C(Oc1ccccc1)c1ccsc1NC(=O)[C@@H]1CCCN1
selectivity ratio [7]: > 10.6
MIC [8]: 23.7 µg/mL (≈ 74.8 µM)
selectivity ratio [9]: > 10.1
GI50 (HeLa): > 250 µg/mL
GI50 [10]: > 250 µg/mL
selectivity ratio [11]: > 10.1
selectivity ratio [12]: > 10.6
MIC [13]: 24.7 µg/mL (≈ 78.2 µM)
selectivity ratio [14]: > 10.6
selectivity ratio [15]: > 10.1
GI50 (MCF7): > 250 µg/mL

C[C@]1(Cn2cc(-c3ccc(OC(F)(F)F)cc3)nn2)Cn2cc([N+](=O)[O-])nc2O1
MIC [5]: 2 µg/mL (≈ 4.87 µM)
Activity (J774): > 40 µg/mL
MIC [6]: 4 µg/mL (≈ 9.75 µM)
